Source: patent US20230059136A1, “THE COMPOUNDS AND COMPOSITIONS FOR TREATING CONDITIONS ASSOCIATED WITH NLRP ACTIVITY” (Novartis AG, priority 2018, published 2023)

The compounds below were run on IL-1β production in PMA-differentiated THP-1 cells (assay: IL-1β production in PMA-differentiated THP-1 cells stimulated with gramicidin (hTHP-1 assay containing 2% fetal bovine serum)). Conditions: Homo sapiens, THP-1, Table B1; 2% fetal bovine serum; cells printed as numeric bound; read-out: hTHP-1 IC50 (Average IC50 of compounds in hTHP-1 assay).
Assay type: cell-based, human
Outline: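 IL-1β release was read by HTRF on supernatants of 50,000 PMA-primed (20 ng/ml, 16-18 h) THP-1 cells/well in 2% FBS medium. Cells saw compound for 1 h (11-point titration from 100 μM, 0.37% DMSO) before a 2 h gramicidin (5 μM) challenge.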
In the case of `CC(C)(O)c1ncc(S(N)(=O)=NC(=O)Cc2cc3c(c4c2CCC4)CCC3)s1` (single isomer, unassigned) [Example 314, (S) or (R)-N-(amino(2-(2-hydroxypropan-2-yl)thiazol-5-yl)(oxo)-λ^6-sulfaneylidene)-2-(1,2,3,6,7,8-hexahydro-as-indacen-4-yl)acetamide], the IC50 is reported as > 30000 nM. `CC(C)c1cnc(F)c(C(C)C)c1CC(=O)N=S(N)(=O)c1cnc(C(C)(C)O)s1` (single isomer, unassigned) [Example 316, (S) or (R)-N-(amino(2-(2-hydroxypropan-2-yl)thiazol-5-yl)(oxo)-λ^6-sulfaneylidene)-2-(2-fluoro-3,5-diisopropylpyridin-4-yl)acetamide] was tested, and the IC50 was > 30000 nM. For `CC(C)c1cc(COC2CCCC2)cc(C(C)C)c1CC(=O)N=S(N)(=O)c1cnc(C(C)(C)O)s1` (single isomer, unassigned) [Example 288, (S) or (R)-N-(amino(2-(2-hydroxypropan-2-yl)thiazol-5-yl)(oxo)-λ^6-sulfaneylidene)-2-(4-((cyclopentyloxy)methyl)-2,6-diisopropylphenyl) acetamide], the IC50 was > 30000 nM. In the case of `CC(C)(O)c1ncc([S@](N)(=O)=NC(=O)Cc2cc3c(c4c2CCC4)CCC3)s1` [Compound 259b], the IC50 is reported as > 30000 nM.

Same assay, conditions: Homo sapiens, THP-1, Table B1; 2% fetal bovine serum; class symbols; read-out: hTHP-1 IC50 (Average IC50 of compounds in hTHP-1 assay)
With `CC(C)c1cc(C#CC2CCCCC2)cc(C(C)C)c1CC(=O)N=S(N)(=O)c1cc(C(C)(C)O)n(-c2ccccc2)n1` (stereo not drawn) [Example 226, N-(amino(5-(2-hydroxypropan-2-yl)-1-phenyl-1H-pyrazol-3-yl)(oxo)-λ^6-sulfaneylidene)-2-(4-(cyclohexylethynyl)-2,6-diisopropylphenyl)acetamide] the IC50 was 1000 to 5000 nM. `CC(C)c1cc(C(F)F)nc(C(C)C)c1CC(=O)N=S(N)(=O)c1ccc(CN(C)C)cc1` (stereo not drawn) [Example 258, N-(amino(4-((dimethylamino)methyl)phenyl) (oxo)-λ^6-sulfaneylidene)-2-(6-(difluoromethyl)-2,4-diisopropylpyridin-3-yl)acetamide] showed an IC50 of 1000 to 5000 nM. `CC(C)c1cc(COC2CCCC2)cc(C(C)C)c1CC(=O)N=S(N)(=O)c1cnc(C(C)(C)O)s1` (single isomer, unassigned) [Example 287, (R) or (S)-N-(amino(2-(2-hydroxypropan-2-yl)thiazol-5-yl)(oxo)-λ^6-sulfaneylidene)-2-(4-((cyclopentyloxy)methyl)-2,6-diisopropylphenyl) acetamide] showed an IC50 of 40 to 200 nM. `CCc1cc2c(c(C(C)C)c1CC(=O)N=S(N)(=O)c1cc(C(C)(C)O)cs1)COC2` (stereo not drawn) [Example 245, N-(amino (4-(2-hydroxypropan-2-yl)thiophen-2-yl)(oxo)-λ^6-sulfaneylidene)-2-(6-ethyl-4-isopropyl-1,3-dihydroisobenzofuran-5-yl) acetamide] gave an IC50 of 1000 to 5000 nM. `CC(C)c1cc(F)cc(C(C)C)c1CC(=O)N=S(N)(=O)c1ccc(C(C)(C)O)cc1` (stereo not drawn) [Example 1, 2-(4-Fluoro-2,6-diisopropylphenyl)-N-(4-(2-hydroxypropan-2-yl)phenylsulfonimidoyl)acetamide] gave an IC50 of 1000 to 5000 nM. Compound `CC(C)c1cc2c(c(C(C)C)c1CC(=O)N=S(N)(=O)c1cnn3c1OCCC3)COC2` (single isomer, unassigned) [Example 310, (R) or (S)-N-(amino (6,7-dihydro-5H-pyrazolo[5,1-b][1,3]oxazin-3-yl)(oxo)-λ^6-sulfaneylidene)-2-(4,6-diisopropyl-1,3-dihydroisobenzofuran-5-yl)acetamide] has an IC50 of 1000 to 5000 nM. Work on `CC(C)c1cc(-c2ccc3c(c2)CCOC3)cc(C(C)C)c1CC(=O)N=S(N)(=O)c1cnc(C(C)(O)CO)s1` (stereo not drawn) [Example 253, N-(amino(2-(1,2-dihydroxypropan-2-yl)thiazol-5-yl) (oxo)-λ^6-sulfaneylidene)-2-(4-(isochroman-6-yl)-2,6-diisopropylphenyl)acetamide] yielded an IC50 of 1000 to 5000 nM. `CC(C)c1cc2c(c(C(C)C)c1CC(=O)N=S(N)(=O)c1ccc(C(C)(C)O)cc1)COC2` (single isomer, unassigned) [Example 301, (R) or (S)-N-(amino(4-(2-hydroxypropan-2-yl)phenyl)(oxo)-λ^6-sulfaneylidene)-2-(4,6-diisopropyl-1,3-dihydroisobenzofuran-5-yl)acetamide] showed an IC50 of 1000 to 5000 nM. `CC(C)c1cc(C(F)F)cc(C(C)C)c1CC(=O)N=S(N)(=O)c1ccc(CN(C)C)nc1` (stereo not drawn) [Example 230, N-(amino(6-((dimethylamino)methyl)pyridin-3-yl)(oxo)-λ^6-sulfaneylidene)-2-(4-(difluoromethyl)-2,6-diisopropylphenyl)acetamide] was tested, and the IC50 was 1000 to 5000 nM.

Same assay, conditions: Homo sapiens, THP-1, Table B2; 2% fetal bovine serum; class symbols; read-out: hTHP-1 IC50 (Average IC50 of compounds in hTHP-1 assay)
With `CC(C)c1cc(C#N)c(F)c(C(C)C)c1CC(=O)N=S(=O)(NC#N)c1cnc(C(C)(O)CO)s1` (single isomer, unassigned) [Example 359, N-(cyanamido(2-((R or S)-1,2-dihydroxypropan-2-yl)thiazol-5-yl)(oxo)-λ^6-sulfaneylidene)-2-(4-cyano-3-fluoro-2,6-diisopropylphenyl)acetamide] the IC50 was 1000 to 5000 nM.

Same assay, conditions: Table B1; 2% fetal bovine serum; class symbols; read-out: hTHP-1 IC50 (Average IC50 of compounds in hTHP-1 assay)
`CC(C)c1ccc(F)c(C(C)C)c1CC(=O)N=S(N)(=O)c1nc(C(C)(C)O)cs1` (single isomer, unassigned) [Example 181, (R) or (S)-N-(amino(4-(2-hydroxypropan-2-yl)thiazol-2-yl)(oxo)-λ^6-sulfaneylidene)-2-(3-fluoro-2,6-diisopropylphenyl) acetamide] was tested, and the IC50 was 40 to 200 nM. For `CC(C)c1cc(C#N)c(F)c(C(C)C)c1CC(=O)N=S(N)(=O)c1ncc(C(C)(C)O)s1` (single isomer, unassigned) [Example 43], the IC50 was 1000 to 5000 nM. With `CC(C)c1cc(C#N)c(F)c(C(C)C)c1CC(=O)N=S(N)(=O)c1cc(C(C)(C)O)n(-c2ccccc2)n1` (single isomer, unassigned) [Example 275, (R) or (S)-N-(amino (5-(2-hydroxypropan-2-yl)-1-phenyl-1H-pyrazol-3-yl)(oxo)-λ^6-sulfaneylidene)-2-(4-cyano-3-fluoro-2,6-diisopropylphenyl) acetamide] the IC50 was 200 to 1000 nM. With `CC(C)c1cc(Cl)c(F)c(C2CC2)c1CC(=O)N=S(N)(=O)c1sc(C(C)(C)O)cc1F` (single isomer, unassigned) [Example 57, (R)- or (S)-2-(4-chloro-2-cyclopropyl-3-fluoro-6-isopropylphenyl)-N-(3-fluoro-5-(2-hydroxypropan-2-yl)thiophen-2-ylsulfonimidoyl)acetamide] the IC50 was 1000 to 5000 nM. Compound `CC(C)c1ccc(F)c(C(C)C)c1CC(=O)N=S(N)(=O)c1cnn2c1OCCC2` (single isomer, unassigned) [Example 312, (R) or (S)-N-(amino (6,7-dihydro-5H-pyrazolo[5,1-b][1,3]oxazin-3-yl)(oxo)-λ^6-sulfaneylidene)-2-(3-fluoro-2,6-diisopropylphenyl) acetamide] has an IC50 of 200 to 1000 nM. With `CC(C)c1cc(-c2ccc3c(c2)COCC3)cc(C(C)C)c1CC(=O)N=S(N)(=O)c1cnc(C(C)(C)O)s1` (single isomer, unassigned) [Example 172, (S) or (R)-N-(amino(2-(2-hydroxypropan-2-yl)thiazol-5-yl)(oxo)-λ^6-sulfaneylidene)-2-(4-(isochroman-7-yl)-2,6-diisopropylphenyl) acetamide] the IC50 was 5000 to 30000 nM. Compound `COCc1cc(C(C)C)c(CC(=O)N=S(N)(=O)c2sc(C(C)(C)O)nc2CO)c(C(C)C)c1` (single isomer, unassigned) [Example 68, (S)- or (R)-2-(2,6-diisopropyl-4-(methoxymethyl)phenyl)-N-(4-(hydroxymethyl)-2-(2-hydroxypropan-2-yl)thiazol-5-ylsulfonimidoyl)acetamide] has an IC50 of 200 to 1000 nM.
